# Like-named read-outs stand apart in the source and are kept apart here.
# Assay: Pharmacokinetic analysis of RA in an SH-SY5Y xenograft model (retinoid concentrations in plasma, liver, tumour by LC/MS)
# Type: in vivo, CD-1 nude mice
# Details: for % Total retinoids, tumour, 0.5 h / % Total retinoids, tumour, 2 h / % Total retinoids, tumour, 6 h / % Total retinoids, liver, 0.5 h / % Total retinoids, liver, 2 h / % Total retinoids, liver, 6 h / % Total retinoids, plasma, 0.5 h / % Total retinoids, plasma, 2 h / % Total retinoids, plasma, 6 h / concentration at 0.5 h / concentration at 2 h / concentration at 6 h: label = retinoid measured; for concentration at 0.5 h / concentration at 2 h / concentration at 6 h: po
# Description: All in vivo experiments were approved by the relevant institutional animal welfare committees, and performed according to national law. Female athymic nude mice (CD-1 nu/nu, Charles River) used for antitumour studies were maintained and handled in isolators, under specific pathogen-free conditions, at 24°C with a 12 h light, 12 h dark cycle. Tumours were generated by implantation of SH-SY5Y cells subcutaneously (s.c.) into one flank of CD-1 nude mice (1 × 10^7 cells per animal).
# Treatments began when the tumours were between 7 and 10 mm in length and breadth. Retinoids and R116010 were initially dissolved in DMSO before 10- or 20-fold dilutions in PBS, respectively. For pharmacokinetic studies, the animals were dosed with ATRA or 13cisRA (each 100 mg kg^−1) orally for 0.5, 2 and 6 h. For metabolism studies, animals were treated with R116010 orally at doses of 1.25 or 2.5 mg kg^−1 either immediately before the retinoid being studied, or up to three times (over 1–2 days) before dosing with the retinoid. At termination of experiments, animals were bled under terminal anaesthesia then killed by cervical dislocation. Plasma was immediately removed from the blood by centrifugation at 1000 g for 5 min and snap-frozen in liquid nitrogen in amber Eppendorfs. Tumour and liver samples were removed and snap-frozen, wrapped in foil, in liquid nitrogen.
# Cell pellets obtained from retinoid incubations were re-suspended in 2 ml cell culture medium and disrupted by passing the samples several times through a syringe and hypodermic needle (25G × 1 inches, 0.5 mm × 25 mm; Terumo, Somerset, NJ, USA). Tumour and liver tissues were re-suspended in PBS and homogenised (T25 homogeniser, IKA Laboratories, Staufen, Germany). Retinoids were extracted as described previously ([Veal et al, 2002]; [Armstrong et al, 2005b]). Samples were reconstituted in 200 μl mobile phase A (n-hexane:dichloromethane:propan-2-ol, 400 : 1 : 0.27) and analysed by normal-phase HPLC as described previously ([Veal et al, 2002]). For LC/MS analysis, samples were reconstituted in 200 μl mobile phase A (50% acetonitrile, 50% (0.2%) acetic acid, v v^−1).
# Resolution of retinoids was performed with a Luna C18(2) column (3 μm, 50 mm × 2 mm) using a Perkin Elmer LC (Beaconsfield, UK) system, consisting of a vacuum degasser, two series 200 pumps, a thermostatically controlled series 200 autosampler and a Waters 2487 UV absorbance detector. Retinoic isomers and metabolites were separated by gradient reversed-phase chromatography. An injection volume of 20 μl with a flow rate of 0.2 ml min^−1 was used with mobile phase A (50% acetonitrile, 50% (0.2%) acetic acid, v v^−1) and mobile phase B (acetonitrile, 0.1% acetic acid, v v^−1). Linear gradients were employed between the specified times as follows: 0, 100% A; 5 min, 100% A; 15 min, 100% B; 20 min, 100% B; 23 min, 100% A; 35 min, 100% A. An Applied Biosystems (Warrington, UK) API-2000 LC/MS/MS triple Q (quadrupole) mass spectrometer with electrospray ionisation source, controlled by Analyst software, was operated in single quadrupole negative mode for the detection of compounds.
# [1] = after 13cisRA 100 mg kg^−1 oral, SH-SY5Y tumour
# [2] = after 13cisRA 100 mg kg^−1 oral, liver
# [3] = after 13cisRA 100 mg kg^−1 oral, plasma
# [4] = after ATRA 100 mg kg^−1 oral, SH-SY5Y tumour
# [5] = after ATRA 100 mg kg^−1 oral, liver
# [6] = after ATRA 100 mg kg^−1 oral, plasma
structure (smiles),measurement,setting,value
"CC1=C(/C=C/C(C)=C/C=C/C(C)=C/C(=O)O)C(C)(C)CCC1 [ATRA, all-trans-retinoic acid]",Plasma % of total retinoids at all time points,"after 13cisRA 100 mg kg^−1, plasma, 0.5, 2 and 6 h",< 10%
same,"% Total retinoids, tumour, 0.5 h",[1],7%
same,"% Total retinoids, tumour, 2 h",[1],14%
same,"% Total retinoids, tumour, 6 h",[1],16%
same,"% Total retinoids, liver, 0.5 h",[2],2%
same,"% Total retinoids, liver, 2 h",[2],1%
same,"% Total retinoids, liver, 6 h",[2],<1%
same,"% Total retinoids, plasma, 0.5 h",[3],5%
same,"% Total retinoids, plasma, 2 h",[3],3%
same,"% Total retinoids, plasma, 6 h",[3],1%
same,Intratumoral % of total retinoids at all time points,"after ATRA 100 mg kg^−1, tumour, 0.5, 2 and 6 h",≥ 80%
same,"% Total retinoids, tumour, 0.5 h",[4],90%
same,"% Total retinoids, tumour, 2 h",[4],95%
same,"% Total retinoids, tumour, 6 h",[4],80%
same,"% Total retinoids, liver, 0.5 h",[5],77%
same,"% Total retinoids, liver, 2 h",[5],81%
same,"% Total retinoids, liver, 6 h",[5],46%
same,"% Total retinoids, plasma, 0.5 h",[6],91%
same,"% Total retinoids, plasma, 2 h",[6],88%
same,"% Total retinoids, plasma, 6 h",[6],70%
same,concentration at 0.5 h,"female, CD-1 nu/nu (athymic nude), mouse, liver, 100 mg kg^−1, after 13cisRA 100 mg kg^−1 oral, liver, read-out: Liver concentration, 0.5 h",120 ± 80 ng/g
same,concentration at 2 h,"female, CD-1 nu/nu (athymic nude), mouse, liver, 100 mg kg^−1, after 13cisRA 100 mg kg^−1 oral, liver, read-out: Liver concentration, 2 h",50 ± 50 ng/g
same,concentration at 6 h,"female, CD-1 nu/nu (athymic nude), mouse, liver, 100 mg kg^−1, after 13cisRA 100 mg kg^−1 oral, liver, read-out: Liver concentration, 6 h",20 ± 20 ng/g
same,concentration at 0.5 h,"female, CD-1 nu/nu (athymic nude), mouse, liver, 100 mg kg^−1, after ATRA 100 mg kg^−1 oral, liver, read-out: Liver concentration, 0.5 h",3070 ± 1950 ng/g
same,concentration at 2 h,"female, CD-1 nu/nu (athymic nude), mouse, liver, 100 mg kg^−1, after ATRA 100 mg kg^−1 oral, liver, read-out: Liver concentration, 2 h",6920 ± 1130 ng/g
same,concentration at 6 h,"female, CD-1 nu/nu (athymic nude), mouse, liver, 100 mg kg^−1, after ATRA 100 mg kg^−1 oral, liver, read-out: Liver concentration, 6 h",2400 ± 360 ng/g
same,concentration at 0.5 h,"female, CD-1 nu/nu (athymic nude), mouse, plasma, 100 mg kg^−1, after 13cisRA 100 mg kg^−1 oral, plasma, read-out: Plasma concentration, 0.5 h",0.69 ± 0.49 µM
same,concentration at 2 h,"female, CD-1 nu/nu (athymic nude), mouse, plasma, 100 mg kg^−1, after 13cisRA 100 mg kg^−1 oral, plasma, read-out: Plasma concentration, 2 h",0.57 ± 0.57 µM
same,concentration at 6 h,"female, CD-1 nu/nu (athymic nude), mouse, plasma, 100 mg kg^−1, after 13cisRA 100 mg kg^−1 oral, plasma, read-out: Plasma concentration, 6 h",0.08 ± 0.08 µM
same,concentration at 0.5 h,"female, CD-1 nu/nu (athymic nude), mouse, plasma, 100 mg kg^−1, after ATRA 100 mg kg^−1 oral, plasma, read-out: Plasma concentration, 0.5 h",13 ± 10.4 µM
same,concentration at 2 h,"female, CD-1 nu/nu (athymic nude), mouse, plasma, 100 mg kg^−1, after ATRA 100 mg kg^−1 oral, plasma, read-out: Plasma concentration, 2 h",24.4 ± 1.94 µM
same,concentration at 6 h,"female, CD-1 nu/nu (athymic nude), mouse, plasma, 100 mg kg^−1, after ATRA 100 mg kg^−1 oral, plasma, read-out: Plasma concentration, 6 h",12.8 ± 4.61 µM
same,Tmax,"female, CD-1 nu/nu (athymic nude), mouse, plasma, 100 mg kg^−1 oral, sampled at 0.5, 2, 6 h, read-out: Time of peak plasma levels",2 h
same,concentration at 0.5 h,"female, CD-1 nu/nu (athymic nude), mouse, tumour (SH-SY5Y xenograft), 100 mg kg^−1, after 13cisRA 100 mg kg^−1 oral, SH-SY5Y tumour, read-out: Tumour concentration, 0.5 h",150 ± 90 ng/g
same,concentration at 2 h,"female, CD-1 nu/nu (athymic nude), mouse, tumour (SH-SY5Y xenograft), 100 mg kg^−1, after 13cisRA 100 mg kg^−1 oral, SH-SY5Y tumour, read-out: Tumour concentration, 2 h",370 ± 160 ng/g
same,concentration at 6 h,"female, CD-1 nu/nu (athymic nude), mouse, tumour (SH-SY5Y xenograft), 100 mg kg^−1, after 13cisRA 100 mg kg^−1 oral, SH-SY5Y tumour, read-out: Tumour concentration, 6 h",90 ± 20 ng/g
same,concentration at 0.5 h,"female, CD-1 nu/nu (athymic nude), mouse, tumour (SH-SY5Y xenograft), 100 mg kg^−1, after ATRA 100 mg kg^−1 oral, SH-SY5Y tumour, read-out: Tumour concentration, 0.5 h",2590 ± 2280 ng/g
same,concentration at 2 h,"female, CD-1 nu/nu (athymic nude), mouse, tumour (SH-SY5Y xenograft), 100 mg kg^−1, after ATRA 100 mg kg^−1 oral, SH-SY5Y tumour, read-out: Tumour concentration, 2 h",9410 ± 2230 ng/g
same,concentration at 6 h,"female, CD-1 nu/nu (athymic nude), mouse, tumour (SH-SY5Y xenograft), 100 mg kg^−1, after ATRA 100 mg kg^−1 oral, SH-SY5Y tumour, read-out: Tumour concentration, 6 h",3780 ± 590 ng/g

# Source: PMC2359919, “Molecular targeting of retinoic acid metabolism in neuroblastoma: the role of the CYP26 inhibitor R116010 in vitro and in vivo” (British Journal of Cancer, 2007)
